One data set concerns the target SARS-CoV-2 PLpro (Severe acute respiratory syndrome coronavirus 2, UniProt P0DTD1). Briefly: Papain-like protease. Conditions: read-out: Percent inhibition against PLpro, 100 µg/mL, mean ± SEM of 3 replicas. Format: biochemical.
For data set [1], the system named is normal human fibroblast cells (HDF). Kind of data set: Cell viability MTT assay. Conditions: in words. The data set is classed as cell-based. A general note: Tetrazolium dyes change colour on reduction, which living cells bring about.
The target in a further data set is SARS-CoV-2 M^pro (Severe acute respiratory syndrome coronavirus 2, UniProt P0DTD1). The data set is classed as biochemical. Conditions: read-out: IC50 against M^pro; dose-response 25-200 µg/mL.
A further data set relates to SARS-CoV-2. The note with it: in words; cited from earlier work.

Each structure is given as a SMILES string.

As to `CCOC(=O)C(Cc1c[nH]c2ccccc12)NC(=O)CCC(=O)Nc1ccc(S(N)(=O)=O)cc1` (stereo not drawn) [Compound 2], at SARS-CoV-2 PLpro, the inhibition at 100 µg/mL is no more than 40%.
For orientation: IC50 means the concentration at which inhibition is half-maximal. On to `COc1cc(C(NC2=NC(=O)C(CC(=O)Nc3ccc(C(=O)O)cc3)S2)c2c(O)[nH]c(=O)[nH]c2=O)ccc1O` (stereo not drawn) [Compound 7], for which the “toxicity on mammalian cells” value in data set [1] is listed as “no toxicity”. The IC50 at SARS-CoV-2 M^pro amounted to 450 nM.
In the case of `O=C(CSc1nnc2c(n1)[nH]c1ccccc12)Nc1cccc(S(=O)(=O)N2CCOCC2)c1` [Compound 8], on SARS-CoV-2 PLpro, the inhibition at 100 µg/mL was no more than 40%.
For `COc1ccc(/C=C\C(=O)NC(=S)Nc2ccc(S(=O)(=O)NC(N)=O)cc2)cc1OC` [Compound 9], the inhibition at 100 µg/mL on SARS-CoV-2 PLpro was no more than 40%.
In the case of `COc1cc(CC(C)NCc2cc(NC(=O)c3ccccn3)cc(C(=O)N(C)C)c2)ccc1O` (stereo not drawn) [Compound 12], the inhibition at 100 µg/mL at SARS-CoV-2 PLpro is no more than 40%.
As for `N=C(N/N=C/c1ccccc1O)c1nonc1NCNc1nonc1C(=N)N/N=C/c1ccccc1O` [Compound 13], in data set [1], the “toxicity on mammalian cells” value is listed as “no toxicity”.
For `Cc1cccc(C)c1OCC(=O)N[C@@H](Cc1ccccc1)[C@@H](O)C[C@H](Cc1ccccc1)NC(=O)[C@H](C(C)C)N1CCCNC1=O` [lopinavir], the “outcome in clinical trial as anti-SARS-CoV-2 inhibitors” value in the data set on SARS-CoV-2 is given as “failed in the clinical trial”.
On to `CC(C)c1nc(CN(C)C(=O)N[C@H](C(=O)N[C@@H](Cc2ccccc2)C[C@H](O)[C@H](Cc2ccccc2)NC(=O)OCc2cncs2)C(C)C)cs1` [ritonavir], for which, in the data set on SARS-CoV-2, the “outcome in clinical trial as anti-SARS-CoV-2 inhibitors” value is recorded as “failed in the clinical trial”.

Values taken from article PMC8107043 (Bioorganic & Medicinal Chemistry Letters, 2021).
